{"source": "patent US20050192262A1", "about": "“Treatment of tumours” (priority 2001, published 2005)", "key": {"[1]": {"system": "β-catenin", "assay": "Western blotting of Dunning AT-1 rat prostate tumours", "assay_type": "in vivo", "conditions": "Animals II; exposure 80 hours in all arms", "experimental": "(§1) The animal experiment described above was repeated.\nThawed rat tumours from both experiments above were homogenized in ice cold lysis-buffer. (160 mM NaCl, 10 mM HEPES, 2 mM CaCl2, 5% SDS, 0.5% Triton X-100, 100 μg/ml phenyl-metylsulfonyl fluoride, 1 μg/ml leupeptin and 2 μg/ml aprotinin), placed on ice for 15 minutes and following clarification centrifuged for 10 minutes at 13,000 g. Protein content of homogenates were determined by Lowry assay.\nProtein in lysates (90 μg) were separated by electrophoresis using 8% SDS-PAGE and separated proteins were transferred onto a nitrocellulose membrane (Amersham) in trans-blot electrophoretic transfer cell (Bio-Rad Laboratories).\nAfter washing in TTBS the blots were reincubated with horseradish peroxidase conjugated secondary antibody (anti-goat antibodies 2020, Santa Cruz) diluted 1:4000 in TTBS containing 3% (w/v) non-fat, dried milk for one hour. Blots were developed using an enhanced chemiluminescence system (ECL, Amersham) and exposed to Hyperfilm ECL (Amersham). Optical density was measured densitometrically.\nThe blots were striped and rehybridized with antibodies against β-catenin (C-18, sc. 1496) and COX-2 (C-20, sc 1745) antibodies.\nIn the second animal experiment tumours were investigated for expression of β-catenin, COX-2 and cyclin D1 (A-12, sc. 8396)."}, "[2]": {"system": "cyclin D1", "assay": "Western blotting of Dunning AT-1 rat prostate tumours", "assay_type": "in vivo", "conditions": "Animals II; exposure 80 hours in all arms", "experimental": "as §1\n(§2) Group 1 received a single dose of 10 mg 17α-AED sc. near tumour.\n(§3) Group 2 received a single dose of 80 mg 17β-AED in the same way.\n(§4) Group 3 received a single dose of 25 mg 17α OH-pregnenolone in the same way.\n(§5) Group 4 received a single dose of 7.5 mg 5-androstene-3β,7β,17α-triol.\nProtein content of homogenates were determined by Lowry assay."}, "[3]": {"system": "VEGF", "assay": "Immunostaining of tumour sections against VEGF", "assay_type": "in vivo, rat", "conditions": "Animals II", "experimental": "Working dilution 1:100. As negative control antibody a mouse IgG, clone DAK-GO1, kappa, ×931, Dako, was used with a working dilution of 1:50.\nas §1, §2, §3, §4, §5"}, "[4]": {"target": "T1, PPARγ (Mus musculus, UniProt P37238)", "T1 construct": "made in house; host or cells: E. coli strain Y 1090 (GST-PPARγ); TNT Coupled Reticulocyte Lysate System, Promega (SRC-1)", "T1 sequence (P37238 whole entry)": "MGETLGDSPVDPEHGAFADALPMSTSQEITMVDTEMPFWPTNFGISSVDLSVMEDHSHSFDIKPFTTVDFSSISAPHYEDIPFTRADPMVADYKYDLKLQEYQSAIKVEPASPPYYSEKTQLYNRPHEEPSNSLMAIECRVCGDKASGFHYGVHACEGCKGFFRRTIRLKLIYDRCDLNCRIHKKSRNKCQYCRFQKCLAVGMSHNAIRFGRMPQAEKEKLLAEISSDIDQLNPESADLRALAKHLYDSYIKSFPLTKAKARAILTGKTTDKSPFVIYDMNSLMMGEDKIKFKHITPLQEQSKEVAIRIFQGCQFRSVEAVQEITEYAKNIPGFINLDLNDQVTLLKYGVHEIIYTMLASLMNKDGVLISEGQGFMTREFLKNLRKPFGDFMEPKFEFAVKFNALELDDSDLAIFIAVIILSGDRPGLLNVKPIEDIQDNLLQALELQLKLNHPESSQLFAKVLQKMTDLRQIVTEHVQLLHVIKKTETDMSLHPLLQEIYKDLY", "T1 sequence (Q15788 whole entry partner)": "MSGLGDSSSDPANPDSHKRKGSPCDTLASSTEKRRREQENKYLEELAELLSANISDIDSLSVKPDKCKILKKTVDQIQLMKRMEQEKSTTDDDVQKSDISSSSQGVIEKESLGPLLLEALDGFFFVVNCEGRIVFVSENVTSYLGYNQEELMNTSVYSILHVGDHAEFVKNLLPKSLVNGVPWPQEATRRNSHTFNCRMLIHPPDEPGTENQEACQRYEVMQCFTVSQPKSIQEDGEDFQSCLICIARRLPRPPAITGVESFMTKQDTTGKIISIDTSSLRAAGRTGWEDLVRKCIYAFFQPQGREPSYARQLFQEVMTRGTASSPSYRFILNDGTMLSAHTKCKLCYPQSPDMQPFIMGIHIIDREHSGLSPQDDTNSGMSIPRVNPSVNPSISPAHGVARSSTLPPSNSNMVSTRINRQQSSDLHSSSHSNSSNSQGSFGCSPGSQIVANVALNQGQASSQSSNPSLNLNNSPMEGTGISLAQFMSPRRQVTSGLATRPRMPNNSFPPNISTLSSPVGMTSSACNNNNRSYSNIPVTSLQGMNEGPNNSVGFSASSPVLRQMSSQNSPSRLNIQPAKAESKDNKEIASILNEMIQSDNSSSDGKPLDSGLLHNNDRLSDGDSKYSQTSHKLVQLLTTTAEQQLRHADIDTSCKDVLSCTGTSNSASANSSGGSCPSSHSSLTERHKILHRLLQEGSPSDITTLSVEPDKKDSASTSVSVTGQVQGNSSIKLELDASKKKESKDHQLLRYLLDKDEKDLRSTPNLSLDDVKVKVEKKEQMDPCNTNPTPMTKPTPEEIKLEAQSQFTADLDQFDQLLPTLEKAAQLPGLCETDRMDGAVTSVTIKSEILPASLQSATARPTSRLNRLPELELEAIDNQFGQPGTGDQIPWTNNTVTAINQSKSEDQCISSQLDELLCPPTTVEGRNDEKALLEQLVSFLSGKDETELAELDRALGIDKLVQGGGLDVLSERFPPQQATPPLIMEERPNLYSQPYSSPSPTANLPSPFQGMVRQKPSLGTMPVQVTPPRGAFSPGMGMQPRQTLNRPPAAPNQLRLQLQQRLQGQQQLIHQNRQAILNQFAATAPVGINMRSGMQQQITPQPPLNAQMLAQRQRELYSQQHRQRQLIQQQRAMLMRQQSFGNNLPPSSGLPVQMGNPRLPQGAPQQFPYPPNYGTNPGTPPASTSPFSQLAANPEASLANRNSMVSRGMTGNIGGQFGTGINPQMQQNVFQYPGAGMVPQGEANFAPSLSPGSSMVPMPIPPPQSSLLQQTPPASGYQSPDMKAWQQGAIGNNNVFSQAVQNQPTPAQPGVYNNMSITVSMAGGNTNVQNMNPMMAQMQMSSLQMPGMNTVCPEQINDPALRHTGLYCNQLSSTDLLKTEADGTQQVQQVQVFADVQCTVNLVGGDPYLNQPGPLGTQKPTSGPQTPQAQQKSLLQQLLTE", "assay": "Ligand-induced coactivator interaction assay (GST-PPARγ / SRC-1)", "assay_type": "biochemical", "conditions": "for PPARγ-ligand activity, steroid + liver cytosol + PAPS / PPARγ-ligand activity, native steroid + liver cytosol: second experiment; for PPARγ-ligand activity, steroid + liver cytosol + PAPS: active liver cytosol, sulfate formed in situ; for PPARγ-ligand activity, native steroid + liver cytosol: without PAPS", "experimental": "ApcDNA3-SRC-1 construct was used as template to prepare (^35S-methionine)-SRC-1 by in vitro transcription and translation using the TNT® Coupled Reticulocyte Lysate System (Promega).\nLigand-induced interactions between GST-PPARγ and SRC-1: To generate GST-PPARγ fusion protein, mouse PPARγcDNA was inserted into the NcoI-HindIII sites of pGEX-KG, and protein was then expressed in E. coli, strain Y 1090. The bacteria were lysed by sonication in TEDG buffer (50 mM Tris (pH 7.4), 1.5 mM EDTA, 10% glycerol, 0.4 M NaCl, 0.1 mM DTT) containing the following protease inhibitors: 0.5 mM PMSF, 1 mM benzamidine, 10 μg/ml leupeptin, 10 μg/ml antipain and […] aprotinin. The lysates were centrifuged at 100,000×g for 60 min in a SW 41 rotor using a Beckman L8-70 M ultracentrifuge. The fusion protein was immobilized on GSH Sepharose beads (Pharmacia) and then incubated with potential ligands in (FIG. 5) 10 mM Tris (pH7.4), 0.12 M KCl, 8% glycerol, 4 mM DTT, and 0.5% CHAPS (buffer AA) for 30 min at room temperature. Thereafter, (^35S methionine) SRC-1 (ca 0.1 μCi) was added, and the beads were incubated for another hour at 4° C. and then washed extensively with buffer A. SDS sample buffer was added to the beads, and the samples boiled prior to separation on 7.5% SDS-PAGE. Radioactivity was detected by autoradiography.\nα- and β-AED were investigated in above assay for PPARγ ligand activity in 10 and 100 μM solutions in ethanol 10%, in distilled water. 10 μL aliquots of α-AED-solution or β-AED-solution were also added to a preparation of a male rat liver cytosolic preparation prepared as follows:\nA homogenate of a rat liver, a known source of steroid sulphotransferase activity, was prepared using a food processor. The liver homogenate was protected from serine-proteases by the addition of 2 mmol of PMSF, 1 mmol of EDTA and 10 mmol Tris-HCl buffered to a pH of 7.40. The homogenate was prepared at 4° C. and then centrifuged at 15000 g for 10 minutes, followed by centrifugation at 100000 g for an hour at 4° C. The supernatant was divided into test tubes containing one of the following steroids: 17β-AED or 17α-AED in 5 μM concentration together with 100 μL of liver cytosol. One test tube served as positive control and contained SCR-1.\nIn a second experiment the following steroids were tested for activity: 17α-AED, 17OH-pregnenolone and 5-androstene-3β,7β,17α-triol with and without 10 μL of […] (PAPS), Sigma Chemicals, corresponding to 0.1 mg of PAPS. One test tube served as a positive control and contained SRC-1 Instead of steroid. One test tube contained liver cytosol where the steroid sulphotransferase was inactivated by heating to 45° C. for 30 minutes. Tubes were stirred at 20° C. for 1 hour and the contents were investigated in the receptor-coactivator assay for ligand activity (FIG. 5).\n17α-AED was treated in the method described by Arnostova, Libuse M.; Pouzar, Vladimir; Drasar, Pavel. Inst. Org. Chem. Biochem., Czech. Acad. Sci., Prague, Czech. Synth. Commun. (1990), 20(10), 1521-9, where acetate is used as protection group and pyridine —SO3 complex as the sulfating agent. Deprotection with an excess of 0.8M NaOH in MeOH-water provides the desired hydroxy sulfate, which is investigated, for PPARγ-activity in the ligand-activated-coactivator receptor assay described above."}, "[5]": {"system": "DU-145", "assay": "Facscan viability (chlorofluoresceindiacetate / propidiumiodide)", "assay_type": "cell-based, human", "conditions": "200 nM 17α-AED + rat liver cytosol + PAPS, Herceptin 1:150, 72 hours", "experimental": "(§6) Effects of HER-2 and 17α-AED-3β-sulfate in breast and prostate cancer cell lines. Cell cultures of prostate cancer cell lines PC-3 and DU-145 as well as mammary cancer cell lines MCF-7 and SKBR-3 were grown in flasks as previously described in the presence or absence of a 200 nM 17α-AED. Cultures containing 17α-AED were further subdivided and these cultures were grown in the presence or absence of Herceptin®, her-2 antibodies, using a stem solution of 1 mg/ml which was further diluted, making the final concentration 1:150 In the cell suspension.\n(§7) Representations of each cell line containing no steroid were also treated with herceptin as above. For each cell line and variation of treatment 3 different culture flasks were used.\n(§8) Further, a mixture of 100 μL rat liver cytosol and 20 μL of 3′-phosphoadenosine-5′-phosphosulphate (PAPS), corresponding to approximately 0.16 mg of PAPS was shared between and added to cultures containing 17α-AED.\n(§9) Finally, for each cell line three samples were kept as untreated controls.\n(§10) To estimate the number of viable cells a solution of chlorofluoresceindiacetate was added to the cultures on the last day of culture. This chemical penetrates freely into cells, but is metabolized in the living cell into a form with green fluorescence unable to leave the cell. As counterstaining, to detect dead cells, propidiumiodide, giving a red fluorescence, was added 15 minutes before analyzing the samples in a Facscan. Time for 10000 cells to pass the detector in the Facscan was estimated in order to detect a possible growth inhibitory effect, not resulting in an increased number of dead cells."}, "[6]": {"system": "MCF-7", "assay": "Facscan viability (chlorofluoresceindiacetate / propidiumiodide)", "assay_type": "cell-based, human", "conditions": "200 nM 17α-AED + rat liver cytosol + PAPS, Herceptin 1:150, 72 hours", "experimental": "as §6, §7, §8, §9, §10"}, "[7]": {"system": "PC-3", "assay": "Facscan viability (chlorofluoresceindiacetate / propidiumiodide)", "assay_type": "cell-based, human", "conditions": "200 nM 17α-AED + rat liver cytosol + PAPS, Herceptin 1:150, 72 hours", "experimental": "as §6, §7, §8, §9, §10"}, "[8]": {"system": "SKBR-3", "assay": "Facscan viability (chlorofluoresceindiacetate / propidiumiodide)", "assay_type": "cell-based, human", "conditions": "200 nM 17α-AED + rat liver cytosol + PAPS, Herceptin 1:150, 72 hours", "experimental": "as §6, §7, §8, §9, §10"}, "[9]": {"system": "PPARγ", "assay": "Western blotting cell lines", "assay_type": "cell-based, human", "excerpt": "(§11) Protein blotting was repeated for DU-145 and PC-3 cell lines, which were also investigated for expression of PPARδ through antibody (H-74, sc 7197)."}, "[10]": {"system": "PPARδ", "assay": "Western blotting cell lines", "assay_type": "cell-based, human", "conditions": "PC-3 and DU-145", "excerpt": "as §11"}, "[11]": {"system": "Dunning R 3327, AT-1, rat prostatic tumour", "assay": "Tumour growth after s.c. injection near tumour", "assay_type": "in vivo", "conditions": "Animals II; single s.c. injection in the proximity of the tumour", "experimental": "as §1, §2, §3, §4, §5\nA fifth group served as tumour bearing controls."}}, "note": "Read-outs that look alike come from different tables or passages of the source.", "data": [{"molecule": "C[C@]12CC[C@H]3[C@@H]([C@@H](O)C=C4C[C@@H](O)CC[C@@]43C)[C@@H]1CC[C@H]2O", "note": "[5-androstene-3β,7β,17α-triol, 3β,7β,17α-trihydroxy-androst-5-en]", "values": [{"measurement": "expression of β-catenin", "setting": "[1]", "result": "down-regulation"}, {"measurement": "expression of cyclin D1", "setting": "[2]", "result": "down-regulation"}, {"measurement": "staining for VEGF", "setting": "[3]", "result": "almost complete disappearance of detectable VEGF In tumours in 2 cases, a modest downregulation in 1 and unchanged appearance in 1"}, {"measurement": "PPARγ-ligand activity, steroid + liver cytosol + PAPS", "setting": "[4]", "result": "insignificant responses"}, {"measurement": "PPARγ-ligand activity, native steroid + liver cytosol", "setting": "[4]", "result": "insignificant responses"}]}, {"molecule": "C[C@]12CC[C@H]3[C@@H](CC=C4C[C@@H](OS(=O)(=O)O)CC[C@@]43C)[C@@H]1CC[C@H]2O", "note": "[17α-AED-3βsulfate, 5-androstene-17α-ol-3β-sulfate]", "values": [{"measurement": "dead", "setting": "[5]", "result": 18, "unit": "%"}, {"measurement": "viable", "setting": "[5]", "result": 70, "unit": "%"}, {"measurement": "dead", "setting": "[6]", "result": 15, "unit": "%"}, {"measurement": "viable", "setting": "[6]", "result": 75, "unit": "%"}, {"measurement": "dead", "setting": "[7]", "result": 12, "unit": "%"}, {"measurement": "viable", "setting": "[7]", "result": 81, "unit": "%"}, {"measurement": "dead", "setting": "[8]", "result": 21, "unit": "%"}, {"measurement": "viable", "setting": "[8]", "result": 66, "unit": "%"}, {"measurement": "PPARγ-ligand activity of the 3β-sulfate", "setting": "[4]", "result": "shows PPARγ-activity"}, {"measurement": "PPARγ-ligand activity of the 3β-sulfate", "setting": "[4]; listed as 5-androstene-17α-ol-3β-sulfate", "result": "only sample demonstrating PPARγ-ligand activity"}, {"measurement": "expression of PPARγ", "setting": "[9]; DU-145, 100 nM, repeated experiment", "result": "Expression of PPARγ was observed"}, {"measurement": "PPARγ expression", "setting": "[9]; PC-3 cells, 100 nM, repeated experiment", "result": "increased"}, {"measurement": "expression of PPARγ", "setting": "[9]; both cell lines (PC-3, DU-145)", "result": "increased the expression of PPARγ significantly"}, {"measurement": "expression of PPARδ", "setting": "[10]", "result": "no effect"}]}, {"molecule": "CC(=O)[C@@]1(O)CC[C@H]2[C@@H]3CC=C4C[C@@H](O)CC[C@]4(C)[C@H]3CC[C@@]21C", "note": "[17αOH-pregnenolone, 17-hydroxy-pregnenolone (17α-OH)]", "values": [{"measurement": "expression of β-catenin", "setting": "[1]", "result": "same pattern, but even more marked"}, {"measurement": "expression of cyclin D1", "setting": "[2]", "result": "same pattern, but even more marked"}, {"measurement": "staining for VEGF", "setting": "[3]", "result": "almost complete disappearance of staining for VEGF"}, {"measurement": "tumour volumes", "setting": "[11]", "result": "~−50", "unit": "%"}, {"measurement": "PPARγ-ligand activity, steroid + liver cytosol + PAPS", "setting": "[4]", "result": "insignificant responses"}, {"measurement": "PPARγ-ligand activity, native steroid + liver cytosol", "setting": "[4]", "result": "insignificant responses"}]}]}
